Measurements from article PMC3198734 (PLoS ONE, 2011).
Where no end group is shown, it is not given here.

Key:
Acinetobacter baumannii = assay type: cell-based; settings: data not shown
[1] = test system: IL-1β, GM-CSF, KC, RANTES, MIP-1α in BAL fluid; assay type: in vivo, BALB/c mice

Substance	antimicrobial activity of the preparation (Acinetobacter baumannii)	BAL fluid concentration of GM-CSF compared with PR/8 infected control animals ([1]; mouse, in vivo)	BAL fluid concentration of IL-1β compared with PR/8 infected control animals ([1]; mouse, in vivo)	BAL fluid concentration of KC ([1]; mouse, in vivo)	BAL fluid concentration of MIP-1α (non-significant increase after infection) ([1]; mouse, in vivo)	BAL fluid concentration of RANTES ([1]; mouse, in vivo)	BAL fluid cytokine concentrations in the absence of influenza virus infection ([1]; uninfected mice, nebulized peptide, BAL on day 3)
GLLRKGGEKIGEKLKKIGQKIKNFFQKLVPQPEQ [mCRAMP, mouse cathelicidin peptide]	confirmed	–	–	–	–	–	–
LLGDFFRKSKEKIGKEFKRIVQRIKDFLRNLVPRTES [LL-37, human cathelicidin peptide generated from hCAP-18]	confirmed	significantly lower	significantly lower	unchanged compared with uninfected controls	this increase was ameliorated	unchanged compared with uninfected controls	did not significantly alter cytokine concentrations
RGGRLCYCRRRFCVCVGR-NH2 (also: bicyclic or more (positions not given here)) [Protegrin-1, porcine neutrophil-derived cathelicidin peptide with two disulfide bridges]	confirmed	–	–	–	–	–	–
